Assay [1] concerns panelists. The experiment in a line: 2-AFC flavor and preference test, cotton candy flavored water (Example 1). The class given is in vivo. The following applies: allulose in an amount below its sweetness threshold in cotton candy flavored beverage. The protocol:
Cotton candy flavor samples in accordance with Table 2 below were prepared by weighing all of the ingredients into a container and blending until fully mixed.
The N&A Cotton Candy flavor was obtained from Givaudan (product code YX-953-327-3). […] DOLCIA PRIMA® was obtained from Tate & Lyle. The DOLCIA PRIMA® Allulose Syrup comprises allulose in an amount of 71% by weight on a dry solids basis. Accordingly, in the Test Sample, allulose was present at an amount of approximately 1.5% by weight relative to the total weight of the solution. The deionized water was produced by reverse osmosis.
The samples in Table 2 were subjected to 2-AFC testing. As already described herein, an AFC test is an alternative forced choice test. It asks a panelist to identify the sample that is most or least intense in a specified attribute among a given number of samples. A 2-AFC test chooses among 2 samples, a 3-AFC test chooses among 3 samples, etc. The attributes that are specified are generally attributes which panelists are likely to be able to recognize and identify a difference. A 2-AFC for sweetness would present panelists with two samples and ask them of the two which is sweeter. These differ from triangle tests or other types of tests in that an attribute is specified for the panelist to focus on. […]

Assay [2] has as its system panellists. The experiment in a line: 2-AFC flavor and preference test, salted caramel flavored water (Example 2). The note with it: allulose in an amount below its sweetness threshold in salted caramel flavored beverage. The class given is in vivo. The protocol:
Salted caramel flavor samples in accordance with Table 4 below were prepared by weighing all of the ingredients into a container and blending until fully mixed.
The N&A Salted Caramel flavor was obtained from Flavor & Fragrance Specialities (product code YX-226E 032). […] DOLCIA PRIMA® was obtained from Tate & Lyle. The DOLCIA PRIMA® Allulose Syrup comprises allulose in an amount of 71% by weight on a dry solids basis. Accordingly, in the Test Sample, allulose was present at an amount of approximately 1.5% by weight relative to the total weight of the solution. The deionized water was produced by reverse osmosis.
The samples in Table 3 were subjected to 2-AFC testing.
Samples were prepared on the morning of testing. […] Standard ambient fluorescent lighting was used in sensory isolation booths, as is typical in sensory facilities. Products were served blinded and randomized in 2-oz soufflé cups identified with randomized three digit product codes.
The response questionnaires were run using Compusense Cloud. Replicates were not performed for this study. Therefore, simple binomial statistics were applied.

The subject of assay [3] is panellists. The experiment in a line: Determination of the sweet-taste threshold of allulose: two-alternative forced choice test (2-AFC) against 1.5% by weight sucrose solution. The class given is in vivo. From the text:
Described herein is a method for determining the sweetness threshold of allulose. The method is a two-alternative forced choice test against threshold levels of sweetness (ASTM Designation E2164-08: Standard Test Method for Directional Difference Test). This test is used to determine the amount of allulose at which its sweetness is less than that of the recognition threshold concentration of sucrose. The recognition threshold concentration of sucrose is 1.5% by weight in accordance with FEMA (Flavor Extracts Manufacturing Association) GRAS™ guidance.
The sweet-taste threshold of allulose was determined in accordance with FEMA (Flavor Extracts Manufacturing Association) guidance. The standard process described in this guidance requires use of a two-alternative forced choice test (2-AFC testing) against threshold levels of sweetness. FEMA guidance states that the standard for this determination is a 1.5% by weight sucrose aqueous solution (i.e. the sucrose is present in an amount of 1.5% by weight relative to the total weight of the solution). AFC tests are to be performed up to the concentration where the proposed substance exceeds the sweetness levels of sucrose at threshold levels. FEMA guidance further recommends that 30 observations be made to assess the difference in sweetness and that the differences must be found to be statistically significant to assess the effect.
The number of panellists used across replicates always exceeded the minimum of 30 observations as recommended by the FEMA sensory testing guidance. As replicates were performed, beta-binomial statistics were required to be consistent with published requirements (BI, Jian. 2006. Sensory Discrimination tests and Measurements. Chapter. 6, p. 106-129, 1st ed. Blackwell Publishing, Ames, Iowa). In such tests, when the beta-binomial term A exceeds zero, the beta-binomial is required. However, if A is zero or negative, then the panel is not over-dispersed and traditional binomial statistics can be used.
Samples were prepared on the morning of testing. Reference solutions were made as a point of comparison for all tests. The reference solutions were simple solutions of 1.5% by weight sucrose (commercial Domino brand sugar) in water. Test solutions were made from Tate & Lyle Dolcia Prima® allulose syrup standardized such that the amount of allulose in the test solutions was 1.925%, 2.310%, 2.695%, 2.8875%, or 3.080% by weight relative to the total weight of the solution.
Replicated pairs of samples at a single test concentration were chosen from those above and served on a given day. Panellists were presented products in coded 2-oz soufflé cups containing approximately 1.5 oz of liquid, and asked which sample was sweeter. Products were served at room temperature. The serving order was randomized based on a complete block design, such that the order of samples was randomized among panellists and between replicates.

The conditions of assay [4]: in accordance with FEMA GRAS guidance; cited from earlier work.

For the compound `O=C(CO)C(O)C(O)C(O)CO` (stereo not shown) [allulose], the “Effect on cotton candy flavor (in words)” value in assay [1] is given as “enhanced the cotton candy flavor”. For the same compound, the “Effect on preference for the beverage (in words)” value in assay [1] and in assay [2] was “increased the preference for the beverage” throughout. For the same compound, the “Effect on salted caramel flavor (in words)” value in assay [2] is “enhanced the salted caramel flavor”. In addition, in assay [3] (2.8875% by weight of allulose vs 1.5% by weight sucrose), the “Sweetness compared with sucrose solution (in words)” value is recorded as “considered to be sweeter than the 1.5% by weight sucrose solution”. Moreover, the “Sweetness relative to sweetness threshold (in words)” value in assay [3] (3.0800% allulose solids) is “clearly above the sweetness threshold”. In addition, the “Count: number of panellists who selected the sucrose solution as sweeter” value in assay [3] (allulose 1.9250 weight % in water vs 1.5% by weight sucrose, 50 possible) turned out to be 45; in assay [3] (allulose 2.3100 weight % in water vs 1.5% by weight sucrose, 58 possible) it was 49; in assay [3] (allulose 2.6950 weight % in water vs 1.5% by weight sucrose, 60 possible), 40. Also, the “Count: number of panellists who selected the allulose solution as sweeter” value is listed as 26 in assay [3] (allulose 2.8875 weight % in water vs 1.5% by weight sucrose, 44 possible) and 34 in assay [3] (allulose 3.0800 weight % in water vs 1.5% by weight sucrose, 60 possible). In addition, the “Amount of allulose in solution considered below its sweetness threshold” value in assay [3] (relative to total weight of the solution, vs 1.5% by weight sucrose) is at most 2.695 % by weight.

Regarding `OC[C@H]1O[C@@](CO)(O[C@H]2O[C@H](CO)[C@@H](O)[C@H](O)[C@H]2O)[C@@H](O)[C@@H]1O` [sucrose], the Recognition threshold concentration in assay [4] is given as 1.5 % by weight.

The values above are taken from patent publication US20190313680A1, “MODIFYING OR ENHANCING A FLAVOR OF FOOD AND BEVERAGE PRODUCTS” (Tate & Lyle Ingredients Americas LLC, priority 2016, published 2019).
